Laboratory results taken from patent US6451288B1, “Method of treating lung diseases with uridine 5′-diphosphate and analogs thereof” (The University of North Carolina at Chapel Hill, priority 1997, dated 2002).

Assays:
[1] = tested on: human nasal epithelial cells; assay: Cytosolic Ca2+ measurement (Fura-2) in human nasal epithelial cells; type: cell-based
Experimental: (§1) Human nasal epithelial cells were harvested from turbinates using protease XIV (Sigma, St. Louis, Mo.) for 24-48 h at 4° C., as previously described. R. Wu, et al., Am. Rev. Respir. Dis. 132, 311-320 (1985). Cytosolic Ca^2+ and inositol phosphate measurements were made on nasal cell monolayers plated on porous Transwell Col filters (pore diameter 0.45 μm; Costar, Cambridge, Mass.) and maintained in Ham's F12 media supplemented with 10 ng/mL epidermal growth factor, 3.75 ng/mL endothelial cell growth factor, 500 ng/mL hydrocortisone, 5 ng/mL insulin, and 1 mM CaCl2 (Ham's F12+4X medium). Assays were carried out 7 to 10 days after seeding, a time coincident with the development of the maximal transepithelial potential difference according to N. Nakahata & T. K. Harden, Biochem. J. 241, 337-344 (1987).
(§2) Nasal cells grown on Transwell Col filters affixed to O-rings were maintained in F12+4X medium and studied 7-10 days after cell plating as described above. For Ca^2+i measurements, cells were loaded with Fura-2 and mounted in a miniature Ussing chamber over an objective of a microscope (Zeiss) coupled to a microfluorimeter, and cytosolic Ca^2+i levels were quantitated as previously described in Paradiso et al., supra. The fluorescence intensity ratio (excitation 340/380; emission λ 450 nm) was collected from a field of 30-40 nasal cells on monolayers and converted to Ca^2+ as previously described in E. H. Larsen et al, J. Physiol. 424, 109-131 (1990). For simultaneous measurements of Cl^− secretion, the transepithelial potential difference (TEP) was measured by a Voltage-Clamp/Pulse Generator (Model VCC600, Physiologic Instruments, San Diego, Calif.) and recorded on a two-channel recorder (Linsesis Model L200S). To calculate changes in Cl^− secretory current (ΔICl^−), a defined 1 sec current pulse was delivered across the monolayer every 10 sec. The nasal tissue was converted from its native Na^+ absorptive state to a Cl^− secretory state by exposing monolayers to a luminal medium containing 0 Na^+/low Cl^− and to a basolateral medium of Krebs bicarbonate Ringer solution.

[2] = biological target: T1, human P2Y6 receptor (Homo sapiens, UniProt Q15077); assay: Inositol phosphate accumulation in 1321N1 astrocytoma cells overexpressing the human P2Y6 receptor; type: cell-based; details: 60 min, hexokinase/glucose present
T1 construct: expressed in transfected cells
Experimental: The following method was used for measuring inositol phosphate accumulation of the UDP analogs described within this example as drugs. 1321N1 astrocytoma cells, stably overexpressing the human P2Y6 receptor (Nicholas, et al., Mol. Pharmacol. 50, 224-229 (1996)), were seeded into 96 well plates (7500 cells/well) in DMEM-H supplemented with 10% FCS. After 48 hours, the growth media was replaced with inositol-free DMEM-H supplemented with 2.5% dialyzed FCS and [^3H]-inositol (0.2 uCi/well) to radiolabel hormone-responsive inositol phospholipid pools. Cells were stimulated 48 hours later. At the time of assay, the culture media was supplemented with 25 mM HEPES (pH 7.4) and 10 mM […] to prevent hydrolysis of [^3H]-inositol phosphates. In addition, hexokinase (0.03 U/well) and glucose (50 mM final concentration) was added to the cultures to provide an enzymatic mechanism for the depletion of nucleoside triphosphates contaminating drug solutions or released from cells prior to/or during cell stimulation reactions. Drugs were diluted in phosphate buffered saline containing hexokinase/glucose and incubated at 37° for 30 minutes prior to addition to cells. Reactions were terminated after 60 minutes by rapid aspiration of media followed by the addition of ice cold EDTA (1.0 mM) and incubation on ice for at least 15 minutes prior to resolution of [^3H]-inositol phosphates by ion exchange chromatography as described (Brown, et. al., supra).

[3] = tested on: human nasal epithelial cells; assay: [3H]inositol phosphate formation in polarized human nasal epithelial cells; type: cell-based; details: Homo sapiens, Epithelial cell, 10 min; added to mucosal medium, 10 min; read-out: EC50 for stimulating inositol phosphate formation
Experimental: as §1
Confluent human nasal epithelial cells as described in Example 1 were labeled for 18 h in inositol-free DMEM containing 4.5g/L glucose and 5 μCi/mL of [^3H]myo-inositol. These cells were pre-incubated with 10 mM LiCl and challenged with agonists for an additional 10 min. No changes of medium were made subsequent to addition of [^3H]myo-inositol to avoid release of endogenous ATP from stressed cells. E. R. Lazarowski et al., Br. J Pharmacol. 116, 1619-1627 (1995). Incubations were terminated by addition of 5% ice-cold trichloroacetic acid and the resultant [^3H]inositol phosphates were separated on Dowex AG1-X8 columns as described in A. M. Paradiso et al., Nature 377, 643-646 (1995).

[4] = tested on: human nasal epithelial cells; assay: Cl- secretion (transepithelial potential difference, Ussing chamber) in human nasal epithelial cells; type: cell-based
Experimental: as §1, §2

[5] = tested on: human nasal epithelial cells; assay: Hydrolysis of [3H]UTP and [3H]UDP on human nasal epithelial cell surfaces; type: in vitro ADME; details: for Nucleotide Hydrolysis MUCOSAL / Nucleotide Hydrolysis SEROSAL: 20 min incubation period, mean ± range of two experiments; for Nucleotide Hydrolysis SEROSAL: serosal surface
Experimental: (§3) Nasal monolayers were grown to confluence on 6.5 mm Transwells (Costar) as indicated above. The cells were washed twice and preincubated with 300 μl HEPES-buffered (pH, 7.4) DMEM medium for at least one hour prior to the addition of the [^3H]-nucleotides to ensure that any endogeneously released ATP was degraded. Incubations were initiated by addition of 2 μM [^3H]UTP or [^3H]UDP (0.5 μCi each) to either cell surface. Incubations were terminated at the indicated times by transferring the medium to a tube containing 30 μl 50 mM EDTA and boiled for 2 min. Nucleotides were separated by HPLC (Shimadzu Scientific Instruments, Inc., Columbia, Md.) via a strong anion exchange column (Rainin Instrument Co., Emeryville, Calif.) using a two solvent system consisting of buffer A (45 mM ammonium formate, pH 4.6) and buffer B (250 mM sodium phosphate, pH 2.7). A linear gradient was developed from 100% buffer A to 100% B during the first 25 min. The column then was eluted with 100% buffer B for the […] and with 100% buffer A for an additional 15 min from 45 to 60 min. Absorbance at 260 nm was monitored with a LSA UV detector (Shimadzu), and radioactivity was monitored on-line with a Flo-One detector (Packard Instrument Co., Meridien, Conn.). [^3H]Nucleotides and [^3H]nucleosides were quantitated as previously described. Id. Confluent polarized cells were incubated for 20 min at 37° C. in the presence of 1 μM (0.2 μCi) of [3H]UTP, [^3H]UDP, or [^3H]UDP combined with 100 μM ATP. All additions were to the mucosal bath (300 μl final volume). Incubations were terminated by transferring the mucosal medium to an Eppendorf tube containing 30 μl 50 mM EDTA, followed by boiling. [^3H]Species were separated by HPLC as indicated in Example 6. Hydrolysis of both [^3H]UTP and [^3H]UDP on the surface of human nasal epithelial cells was determined on both cell surfaces by the following procedures: primary cultures of HNE cells were grown to confluence on 6.5 mm Transwells as a polarized epithelium. The cells were washed twice with pre-warmed DMEM-HEPES medium (pH 7.4), and were pre-incubated for 1 hour at 37° C with 0.5 mL of medium added on each side. Incubations were initiated by the addition 50 μl of 10 μM (0.5 μCi) [^3H]UTP or [^3H]UDP on the indicated cell surface. Medium samples were collected during a 20 min incubation period and analyzed by HPLC as described in Example 6. The values represent the mean (±range from the mean) from two experiments performed with duplicate samples.

[6] = as above; type: in vitro ADME; details: human, pH 7.4; mucosal, time course; read-out: Half life (t½)
Experimental: as §3

T1 sequence (Q15077 whole entry): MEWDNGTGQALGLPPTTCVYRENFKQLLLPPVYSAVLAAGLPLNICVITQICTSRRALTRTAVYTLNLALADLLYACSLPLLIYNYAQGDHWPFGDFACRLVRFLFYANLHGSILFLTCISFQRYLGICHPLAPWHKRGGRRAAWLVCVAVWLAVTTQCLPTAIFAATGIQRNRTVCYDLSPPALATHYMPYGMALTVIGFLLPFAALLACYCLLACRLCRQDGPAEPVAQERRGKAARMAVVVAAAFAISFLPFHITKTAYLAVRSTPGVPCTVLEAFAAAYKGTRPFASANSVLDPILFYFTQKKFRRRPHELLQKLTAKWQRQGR

Compound: Nc1ncnc2c1ncn2[C@@H]1O[C@H](COP(=O)(O)OP(=O)(O)OP(=O)(O)O)[C@@H](O)[C@H]1O [ATP, reference compound]
- Responses following multiple additions of UDP ([1]; after multiple additions of UDP): retained

Compound: Cc1cn([C@@H]2O[C@H](COP(=O)(O)OP(=O)(O)O)[C@@H](O)[C@H]2O)c(=O)[nH]c1=O [Compound A, 5-Methyluridine 5′-diphosphate]
- EC50 [2]: 0.5 µM

Compound: CCCCCCOc1ccn([C@@H]2O[C@H](COP(=O)(O)OP(=O)(O)O)[C@@H](O)[C@H]2O)c(=O)n1 [Compound B, 4-Hexyloxyuridine 5′-diphosphate]
- EC50 [2]: 3 µM

Compound: CN(C)c1ccn([C@@H]2O[C@H](COP(=O)(O)OP(=O)(O)O)[C@@H](O)[C@H]2O)c(=O)n1 [Compound C, N,N-dimethylcytidine 5′-diphosphate]
- EC50 [2]: 41.7 µM

Compound: COc1ccn([C@@H]2O[C@H](COP(=O)(O)OP(=O)(O)O)[C@@H](O)[C@H]2O)c(=O)n1 [Compound D, 4-Methoxyuridine 5′-diphosphate]
- EC50 [2]: 4.7 µM

Compound: CCCCCCNc1ccn([C@@H]2O[C@H](COP(=O)(O)OP(=O)(O)O)[C@@H](O)[C@H]2O)c(=O)n1 [Compound E, N-hexylcytidine 5′-diphosphate]
- EC50 [2]: 25.5 µM

Compound: O=c1nc(N2CCOCC2)ccn1[C@@H]1O[C@H](COP(=O)(O)OP(=O)(O)O)[C@@H](O)[C@H]1O [Compound F, 4-(N-morpholino)uridine 5′-diphosphate]
- EC50 [2]: 55.1 µM

Compound: O=c1[nH]c(=O)n([C@@H]2O[C@H](COP(=O)(O)OP(=O)(O)O)[C@@H](O)[C@H]2O)cc1C#Cc1ccccc1 [Compound G, 5-(Phenylethynyl)uridine 5′-diphosphate]
- EC50 [2]: 0.02 µM

Compound: O=c1ccn([C@@H]2O[C@H](COP(=O)(O)OP(=O)(O)O)C[C@H]2O)c(=O)[nH]1 [Compound H, 3′-Deoxyuridine 5′-diphosphate]
- EC50 [2]: 2.1 µM

Compound: O=c1nc(NC2CCCC2)ccn1[C@@H]1O[C@H](COP(=O)(O)OP(=O)(O)O)[C@@H](O)[C@H]1O [Compound I, N-Cyclopentylcytidine 5′-diphosphate]
- EC50 [2]: 8.6 µM

Compound: CCCCCCSc1ccn([C@@H]2O[C@H](COP(=O)(O)OP(=O)(O)O)[C@@H](O)[C@H]2O)c(=O)n1 [Compound J, 4-Hexylthiouridine 5′-diphosphate]
- EC50 [2]: 1.8 µM

Compound: O=c1ccn([C@@H]2O[C@H](COP(=O)(O)OP(=O)(O)OP(=O)(O)O)[C@@H](O)[C@H]2O)c(=O)[nH]1 [UTP, uridine 5′-triphosphate, reference compound]
- EC50 [3]: 0.28 ± 0.035 µM
- ΔCa2+, UDP-treated cells ([1]; UDP-treated cells, n=8): 310 ± 35 nM
- ΔCa2+, control cells ([1]; control cells, n=19): 374 ± 24 nM
- Cl- secretory response (ΔICl-), mucosal bath ([4]; 100 μM, mucosal): 74±11 μA/cm^2
- Cl- secretory response (ΔICl-), serosal bath ([4]; 100 μM, serosal): 34±3 μA/cm^2
- ΔCl-, UDP-treated cells ([4]; UDP-treated cells, n=8, the values are: ΔICl- (Cl- secretory current)): -61 ± 10 µA/cm²
- ΔICl-, control cells ([4]; control cells, n=12): −74±11 μA/cm^2
- Hydrolysis rate of mucosal UTP relative to mucosal UDP ([5]; mucosal): 2-3 fold

Compound: O=c1ccn([C@@H]2O[C@H](COP(=O)(O)OP(=O)(O)O)[C@@H](O)[C@H]2O)c(=O)[nH]1 [[^3H]UDP]
- half-life [6]: 27 ± 3 min
- Nucleotide Hydrolysis MUCOSAL ([5]; mucosal surface): 87 ± 6
- Nucleotide Hydrolysis SEROSAL [5]: 70 ± 9

Compound: O=c1ccn([C@@H]2O[C@H](COP(=O)(O)OP(=O)(O)OP(=O)(O)O)[C@@H](O)[C@H]2O)c(=O)[nH]1 [[^3H]UTP]
- half-life [6]: 14 ± 2 min
- Hydrolysis ([5]; 1 μM, 20 min, mucosal surface, 37° C.): 73±16%
- Nucleotide Hydrolysis MUCOSAL ([5]; mucosal surface): 17 ± 22
- Nucleotide Hydrolysis SEROSAL [5]: 98 ± 11
